The text below walks through data of paper PMC9057277 (RSC Advances, 2020).

One series has as its target T1, purified ovine COX-1 (Ovis aries, UniProt P05979).
T1 sequence (P05979 25-600): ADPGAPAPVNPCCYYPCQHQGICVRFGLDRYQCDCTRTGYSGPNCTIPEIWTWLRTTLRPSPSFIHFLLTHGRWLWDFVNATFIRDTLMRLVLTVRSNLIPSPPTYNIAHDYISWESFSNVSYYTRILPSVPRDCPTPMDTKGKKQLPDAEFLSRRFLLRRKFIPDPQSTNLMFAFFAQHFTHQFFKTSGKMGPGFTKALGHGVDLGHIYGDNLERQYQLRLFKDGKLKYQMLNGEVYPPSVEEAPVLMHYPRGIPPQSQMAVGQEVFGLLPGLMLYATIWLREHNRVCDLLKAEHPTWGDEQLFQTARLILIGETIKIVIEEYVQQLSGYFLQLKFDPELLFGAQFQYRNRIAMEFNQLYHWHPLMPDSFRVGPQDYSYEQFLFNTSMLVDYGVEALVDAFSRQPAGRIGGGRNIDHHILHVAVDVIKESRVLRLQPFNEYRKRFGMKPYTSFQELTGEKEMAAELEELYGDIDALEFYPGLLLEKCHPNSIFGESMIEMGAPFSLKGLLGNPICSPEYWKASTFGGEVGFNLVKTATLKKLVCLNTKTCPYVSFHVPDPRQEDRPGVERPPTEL
The experiment in a line: COX Fluorescent Inhibitor Screening Assay Kit, COX-1.

In a further series the target is T2, recombinant human COX-2 (Homo sapiens, UniProt P35354).
T2 construct: purchased Cayman Chemical, Ann Arbor, MI 700100
T2 sequence (P35354 18-604): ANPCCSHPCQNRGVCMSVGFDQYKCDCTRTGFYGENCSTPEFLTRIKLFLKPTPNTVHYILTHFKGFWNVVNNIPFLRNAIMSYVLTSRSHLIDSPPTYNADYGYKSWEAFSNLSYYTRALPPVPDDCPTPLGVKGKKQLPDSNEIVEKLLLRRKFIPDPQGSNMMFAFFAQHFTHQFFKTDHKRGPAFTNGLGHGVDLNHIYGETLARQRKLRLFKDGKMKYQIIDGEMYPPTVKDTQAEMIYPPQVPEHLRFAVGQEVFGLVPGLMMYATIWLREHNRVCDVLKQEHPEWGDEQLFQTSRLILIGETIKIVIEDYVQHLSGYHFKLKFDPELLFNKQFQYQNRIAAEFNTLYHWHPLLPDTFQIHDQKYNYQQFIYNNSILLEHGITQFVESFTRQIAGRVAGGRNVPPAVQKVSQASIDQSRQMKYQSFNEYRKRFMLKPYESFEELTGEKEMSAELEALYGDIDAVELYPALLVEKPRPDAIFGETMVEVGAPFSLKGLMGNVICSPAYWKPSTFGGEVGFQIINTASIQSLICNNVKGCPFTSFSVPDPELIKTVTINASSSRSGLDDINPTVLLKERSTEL
The experiment in a line: COX Fluorescent Inhibitor Screening Assay Kit, COX-2. The following applies: for Selectivity index: IC50 (COX-1)/IC50 (COX-2). In kind it is biochemical.

A short description of series [1]: Metabolic stability in vivo: blood clearance, blood components, radiometabolites. The note with it: for half-life: male, Wistar, rat, arterial blood, iv, 70 MBq, i.v., arterial blood samples; for half-life / Intact compound in blood plasma: rats; for Intact compound in blood plasma: radio-HPLC. Set-up: species or system male Wistar rats.
A short description of a further series: log D7.4 by HPLC method. In kind it is physicochemical. The note with it: HPLC retention on ODP-50 4B column (Shodex Asahipak); pH 7.4, HPLC-based method.
A short description of series [2]: Ex vivo biodistribution in healthy rats. The following applies: i.v., n = 8, mean ± SD; for Biodistribution BAT: brown adipose tissue; for Biodistribution WAT: white adipose tissue.

pIC50: −log10 of the molar value. Where two headings read alike, the source gives them in different places.

Protocol for purified ovine COX-1: 7.4.1 COX inhibition assay
The COX inhibition potency against ovine COX-1 and human COX-2 was determined using the
fluorescence-based COX assay ’COX Fluorescent Inhibitor Screening Assay Kit‘ (catalog number
reported by us.7 In brief, as a measure of COX mediated conversion of arachidonic acid to PG H2 in the
presence of different inhibitor concentrations this assay utilizes the peroxidase component of COX and
analyzes the formation of fluorescent resorufin. All compounds were assayed in a concentration range
of 10 nM to 100 μM, and every inhibitor concentration was assayed in duplicate.
as internal control. IC50 values were estimated using a nonlinear logistic regression ﬁtting procedure
(sigmoidal dose−response model) with Prism Software.

Regarding `Cc1ccc(-c2cc(CCF)nn2-c2ccc(S(C)(=O)=O)cc2)cc1` [5b], on purified ovine COX-1, the negative-log IC50 (pIC50) (as a rule, −log10 of the IC50, conventionally taken in molar units) is 4.41. Also, on recombinant human COX-2, the negative-log IC50 (pIC50) is 5.60 and the Selectivity index came to 15.

For the compound `CS(=O)(=O)c1ccc(-n2nc(CCF)cc2-c2ccccc2)cc1` [5c], the pIC50 against purified ovine COX-1 is < 4.00. At recombinant human COX-2, the pIC50 is 5.30 and the Selectivity index is recorded as >20.

For the compound `Cc1ccc(-c2cc(CCF)n(-c3ccc(S(C)(=O)=O)cc3)n2)cc1` [5d], the negative logarithm of the IC50 (pIC50) against purified ovine COX-1 and at recombinant human COX-2 was < 4.00 in each case.

For the compound `[2H]C([2H])([18F])c1cc(-c2ccc(C)cc2)n(-c2ccc(S(C)(=O)=O)cc2)n1` [[D2,^18F]5a], the half-life in series [1] (read-out: t1/2 distribution (blood clearance of intact compound)) was found to be 1.3 min. Also, the half-life in series [1] (read-out: t1/2 elimination (blood clearance of intact compound)) was 17 min. Moreover, in series [1] (rat blood, 60 min p.i., + TCA), the “Radioactivity distribution in blood components: erythrocytes” value amounted to 18%, the “Radioactivity distribution in blood components: plasma” value was 73% and the “Radioactivity distribution in blood components: plasma supernatant” value worked out at 39%. Further, the “Radioactivity distribution in blood components: plasma pellet (bound to plasma proteins)” value in series [1] (rat blood, 60 min p.i., + TCA precipitation) was determined as 29%. Besides, in series [1] (rat blood, 60 min p.i., - TCA), the “Radioactivity distribution in blood components: erythrocytes” value stood at 16%, the “Radioactivity distribution in blood components: plasma” value was 70%, the “Radioactivity distribution in blood components: plasma pellet” value is reported as 1% and the “Radioactivity distribution in blood components: plasma supernatant” value is 73%. Moreover, the “Intact compound in blood plasma” value in series [1] (20 min p.i.) was determined as 54%. Further, in series [1] (60 min p.i.), the “Intact compound in blood plasma” value is on record as 52%. The chromatographic logD – broadly, a lipophilicity value derived from retention on a column – in “log D7.4 by HPLC method” came to 2.72. In series [2] (5 min p.i.), the “Biodistribution BAT” value is given as 3.31 ± 0.56 SUV, the Biodistribution adrenals is recorded as 3.28 ± 0.52 SUV, the Biodistribution blood was found to be 0.42 ± 0.04 SUV and the Biodistribution brain was 0.54 ± 0.12 SUV. Further, in series [2] (5 min p.i.), the Biodistribution femur was 0.84 ± 0.09 SUV, the Biodistribution harderian gland is 1.94 ± 0.14 SUV, the Biodistribution heart was 0.76 ± 0.12 SUV and the Biodistribution intestine stood at 10.14 ± 1.96 %ID. In series [2] (5 min p.i.), this compound returned a Biodistribution kidneys of 1.58 ± 0.24 SUV, a Biodistribution liver of 4.16 ± 0.29 SUV, a Biodistribution lung of 0.92 ± 0.14 SUV and a Biodistribution muscle of 0.52 ± 0.08 SUV. In addition, in series [2] (5 min p.i.), the Biodistribution pancreas came out at 1.37 ± 0.13 SUV, the “Biodistribution skin & hair” value was determined as 0.9 ± 0.15 SUV, the Biodistribution spleen came to 0.56 ± 0.1 SUV and the Biodistribution stomach is given as 1.14 ± 0.57 %ID. Besides, in series [2] (5 min p.i.), the Biodistribution testes was found to be 0.48 ± 0.04 SUV, the Biodistribution thymus is 0.95 ± 0.08 SUV, the Biodistribution thyroid gland turned out to be 0.95 ± 0.18 SUV and the “Biodistribution urine (calc.)” value is on record as 0.15 ± 1.91 %ID. The “Biodistribution WAT” value in series [2] (5 min p.i.) is 2.79 ± 1.06 SUV. In series [2] (60 min p.i.), the “Biodistribution BAT” value came out at 1.21 ± 0.11 SUV, the Biodistribution adrenals was determined as 0.91 ± 0.15 SUV, the Biodistribution blood amounted to 0.11 ± 0.01 SUV and the Biodistribution brain is on record as 0.11 ± 0.02 SUV. Besides, in series [2] (60 min p.i.), the “Biodistribution femur (femur uptake, 18F-defluorination)” value was found to be 2.6 ± 0.3 SUV; the Biodistribution harderian gland worked out at 0.5 ± 0.08 SUV; the Biodistribution heart is listed as 0.16 ± 0.03 SUV; the Biodistribution intestine is 33.02 ± 3.53 %ID. In series [2] (60 min p.i.), the Biodistribution kidneys turned out to be 0.47 ± 0.06 SUV, the Biodistribution liver was determined as 0.92 ± 0.19 SUV, the Biodistribution lung turned out to be 0.21 ± 0.03 SUV and the Biodistribution muscle is listed as 0.19 ± 0.07 SUV. Further, in series [2] (60 min p.i.), the Biodistribution pancreas is listed as 0.62 ± 0.37 SUV, the “Biodistribution skin & hair” value was 0.25 ± 0.04 SUV, the Biodistribution spleen came out at 0.22 ± 0.12 SUV and the Biodistribution stomach is 1.19 ± 0.49 %ID. For the same compound, in series [2] (60 min p.i.), the Biodistribution testes is given as 0.21 ± 0.04 SUV, the Biodistribution thymus came out at 0.21 ± 0.04 SUV, the Biodistribution thyroid gland was 0.45 ± 0.06 SUV and the “Biodistribution urine (calc.)” value was 9.12 ± 3.68 %ID. Also, the “Biodistribution WAT” value in series [2] (60 min p.i.) stood at 2.4 ± 0.28 SUV.

Regarding `[2H]C([2H])(F)c1cc(-c2ccc(C)cc2)n(-c2ccc(S(C)(=O)=O)cc2)n1` [[D2]5a], on purified ovine COX-1, the negative-log IC50 (pIC50) was < 4.00. Moreover, at recombinant human COX-2, the pIC50 was 6.01 and the Selectivity index is recorded as >103.
